Source: ChEMBL document CHEMBL1629429, “SAR studies of gymnasterkoreayne derivatives with cancer chemopreventive activities” (Bioorg Med Chem Lett, 2010)

How the values were obtained:
[1] = Chemoprevention index, ratio of IC50 for mouse Hepa-1c1c7 cells to drug level required to double specific NADPH:quinone reductase activity in mouse Hepa-1c1c7 cells; format: functional
[2] = Cytotoxicity against mouse Hepa-1c1c7 cells; format: cell-based

SMILES | Ratio IC50 [1] | IC50 [2] [µM]
CCC/C=C/C(O)C#CC#C[C@@H](O)[C@H](C)O (some centres undefined) | 14.77 | 422
C=CCCCCC/C=C\[C@H](O)C#CC#CC1OC1C (some centres undefined) [GYMNASTERKOREAYNE B] | 9.57 | 70.6
CC(C)=CC(O)C#CC#C[C@@H](O)[C@H](C)O (relative stereo) | 17.02 | 406
C[C@H](O)[C@H](O)C#CC#CC(O)C1CCCCC1 (relative stereo) | >3.8 | > 500
CCCCCC(O)C#CC#C[C@@H](O)[C@H](C)O (relative stereo) | >31.66 | > 500
C[C@H](O)[C@H](O)C#CC#CC(O)Cc1ccccc1 (relative stereo) | >8.64 | > 500
C=CCCCCC/C=C\C(O)C#CC#C[C@H](O)[C@H](C)O (some centres undefined) | 18.39 | 252
CCCCCCCCCC(O)CCCC[C@@H](O)[C@H](C)O (some centres undefined) |  | > 500
C=CC(O)C#CC#C[C@@H](O)[C@H](C)O (relative stereo) | 1.12 | 177
CCCCCCC(O)C#CC#C[C@@H](O)[C@H](C)O (relative stereo) | 25.66 | 223
C[C@H](O)[C@H](O)C#CC#CC(O)c1ccccc1 (relative stereo) | >13.57 | > 500
CCCCCCCCCC(O)C#CC#C[C@H](O)[C@H](C)O (relative stereo) | 30.13 | 64.2
C=CCCCCC/C=C\C(O)C#CC#C[C@@H](O)[C@H](C)O (relative stereo) | 10.51 | 88.6
CCCCCCCCCC(O)C#CC#C[C@@H](O)[C@H](C)O (relative stereo) | 7.44 | 39.8
CCCCCC(O)C#CC#C[C@H](O)[C@H](C)O (relative stereo) | >38.6 | > 500
